# From US12178210B2, “Insect attractant and killing system” (priority 2020, dated 2024)
# Like-named read-outs stand apart in the source and are kept apart here.
# How the values were obtained:
# [1] = for Attractant Release Rate (5-day average per time point): 15 g
# Text: All prototype lure devices (i.e., the attractant receptacle and permeable membrane with enclosed volatile insect attractant) were constructed using polypropylene/calcium carbonate film (UV8) for the permeable membrane and Scotchpak™ (3M) polyester laminate film for the impermeable barrier material. Each lure device measured approximately 11.5 cm×5.5 cm with a 1.6 mm ( 1/16 in) diameter spherical punch in the impermeable layer exposing the membrane and an ˜8 mm ( 5/16 in) diameter heat seal around the circumference of the punch (referred to as a ring seal). […] Prior to being deployed the lures were weighed on an analytical balance (Sartorius, Universal; resolution of 0.01 g). Prototype lures were attached to a cord that ran the length of ventilated laboratory fume hood, with 5-8 cm (2-3 in) separating each lure in an open, ventilated room at the indicated temperature (18-20° C. or 39-41° C.). Every 2-3 days the lures were removed from the cord and weighed on the same scale. Lure weight was recorded and the weight loss (g/day) was calculated. In addition to prototype lures, two controls were included in the study consisting of a current Suterra lure product (WHF lure) and a competitor product (Comp. Prod. 1).
# [2] = field, Valencia
# Description: Every two weeks samples of the attractant were weighed to determine the mass. From the mass, the mass that had been released, the mass remaining, and the amount of ammonia released was determined.
smiles,measurement,setting,value
"N.N.O=C(O)O [Ammonium Carbonate, ammonium carbonate]",Release Rate,"[1]; 40° C., 16 hours, UV8 membrane, 1.6 mm orifice",0.39 g/day
same,Release Rate,"[1]; 40° C., 16 hours, second, unexplained block of rows",0.02 g/day
same,Release Rate,"[1]; 40° C., 24 hours, UV8 membrane, 1.6 mm orifice",0.37 g/day
same,Release Rate,"[1]; 40° C., 24 hours, second, unexplained block of rows",0.03 g/day
same,Release Rate,"[1]; 40° C., 51 hours, UV8 membrane, 1.6 mm orifice",0.36 g/day
same,Release Rate,"[1]; 40° C., 51 hours, second, unexplained block of rows",0.05 g/day
same,Release Rate,"[1]; 40° C., 88 hours, UV8 membrane, 1.6 mm orifice",0.36 g/day
same,Release Rate,"[1]; 40° C., 88 hours, second, unexplained block of rows",0.09 g/day
same,Release Rate,"[1]; 40° C., 96 hours, UV8 membrane, 1.6 mm orifice",0.36 g/day
same,Release Rate,"[1]; 40° C., 96 hours, second, unexplained block of rows",0.09 g/day
same,Release Rate,"[1]; 40° C., 112 hours, UV8 membrane, 1.6 mm orifice",0.36 g/day
same,Release Rate,"[1]; 40° C., 112 hours, second, unexplained block of rows",0.10 g/day
same,Release Rate,"[1]; 40° C., 120 hours, UV8 membrane, 1.6 mm orifice",0.36 g/day
same,Release Rate,"[1]; 40° C., 120 hours, second, unexplained block of rows",0.11 g/day
same,Release Rate,"[1]; 40° C., 144 hours, UV8 membrane, 1.6 mm orifice",0.36 g/day
same,Release Rate,"[1]; 40° C., 144 hours, second, unexplained block of rows",0.13 g/day
same,Release Rate,"[1]; 40° C., 168 hours, UV8 membrane, 1.6 mm orifice",0.35 g/day
same,Release Rate,"[1]; 40° C., 168 hours, second, unexplained block of rows",0.15 g/day
same,Attractant Release Rate (5-day average per time point),"[1]; 40° C., day 5, UV8 membrane, 1.6 mm orifice",391.6 mg/day
same,Attractant Release Rate (5-day average per time point),"[1]; 40° C., day 10, UV8 membrane, 1.6 mm orifice",402.8 mg/day
same,Attractant Release Rate (5-day average per time point),"[1]; 40° C., day 15, UV8 membrane, 1.6 mm orifice",396.5 mg/day
same,Attractant Release Rate (5-day average per time point),"[1]; 40° C., day 20, UV8 membrane, 1.6 mm orifice",316.7 mg/day
same,Attractant Release Rate (5-day average per time point),"[1]; 40° C., day 25, UV8 membrane, 1.6 mm orifice",198.0 mg/day
same,Attractant Release Rate (5-day average per time point),"[1]; 40° C., day 30, UV8 membrane, 1.6 mm orifice",156.0 mg/day
same,Attractant Release Rate (5-day average per time point),"[1]; 40° C., day 35, UV8 membrane, 1.6 mm orifice",112.0 mg/day
same,Attractant Release Rate (5-day average per time point),"[1]; 40° C., day 40, UV8 membrane, 1.6 mm orifice",108.4 mg/day
same,Attractant Release Rate (5-day average per time point),"[1]; 40° C., day 45, UV8 membrane, 1.6 mm orifice",100.4 mg/day
same,Attractant Release Rate (5-day average per time point),"[1]; 40° C., day 49, UV8 membrane, 1.6 mm orifice",98.0 mg/day
same,Attractant Release Rate (5-day average per time point),"[1]; 40° C., day 55, UV8 membrane, 1.6 mm orifice",87.7 mg/day
same,Attractant Release Rate (5-day average per time point),"[1]; Ambient Temperature, day 5, UV8 membrane, 1.6 mm orifice",97 mg/day
same,Attractant Release Rate (5-day average per time point),"[1]; Ambient Temperature, day 10, UV8 membrane, 1.6 mm orifice",99.5 mg/day
same,Attractant Release Rate (5-day average per time point),"[1]; Ambient Temperature, day 15, UV8 membrane, 1.6 mm orifice",101.9 mg/day
same,Attractant Release Rate (5-day average per time point),"[1]; Ambient Temperature, day 20, UV8 membrane, 1.6 mm orifice",104.2 mg/day
same,Attractant Release Rate (5-day average per time point),"[1]; Ambient Temperature, day 25, UV8 membrane, 1.6 mm orifice",100.5 mg/day
same,Attractant Release Rate (5-day average per time point),"[1]; Ambient Temperature, day 30, UV8 membrane, 1.6 mm orifice",101.3 mg/day
same,Attractant Release Rate (5-day average per time point),"[1]; Ambient Temperature, day 35, UV8 membrane, 1.6 mm orifice",100.0 mg/day
same,Attractant Release Rate (5-day average per time point),"[1]; Ambient Temperature, day 40, UV8 membrane, 1.6 mm orifice",86.0 mg/day
same,Attractant Release Rate (5-day average per time point),"[1]; Ambient Temperature, day 45, UV8 membrane, 1.6 mm orifice",86.5 mg/day
same,Attractant Release Rate (5-day average per time point),"[1]; Ambient Temperature, day 49, UV8 membrane, 1.6 mm orifice",84.4 mg/day
same,Attractant Release Rate (5-day average per time point),"[1]; Ambient Temperature, day 55, UV8 membrane, 1.6 mm orifice",83.8 mg/day
same,Release Rate,"[1]; Ambient, 16 hours, UV8 membrane, 1.6 mm orifice",0.12 g/day
same,Release Rate,"[1]; Ambient, 16 hours, second, unexplained block of rows",0.01 g/day
same,Release Rate,"[1]; Ambient, 24 hours, UV8 membrane, 1.6 mm orifice",0.12 g/day
same,Release Rate,"[1]; Ambient, 24 hours, second, unexplained block of rows",0.01 g/day
same,Release Rate,"[1]; Ambient, 51 hours, UV8 membrane, 1.6 mm orifice",0.12 g/day
same,Release Rate,"[1]; Ambient, 51 hours, second, unexplained block of rows",0.04 g/day
same,Release Rate,"[1]; Ambient, 88 hours, UV8 membrane, 1.6 mm orifice",0.11 g/day
same,Release Rate,"[1]; Ambient, 88 hours, second, unexplained block of rows",0.06 g/day
same,Release Rate,"[1]; Ambient, 96 hours, UV8 membrane, 1.6 mm orifice",0.12 g/day
same,Release Rate,"[1]; Ambient, 96 hours, second, unexplained block of rows",0.07 g/day
same,Release Rate,"[1]; Ambient, 112 hours, UV8 membrane, 1.6 mm orifice",0.11 g/day
same,Release Rate,"[1]; Ambient, 112 hours, second, unexplained block of rows",0.08 g/day
same,Release Rate,"[1]; Ambient, 120 hours, UV8 membrane, 1.6 mm orifice",0.12 g/day
same,Release Rate,"[1]; Ambient, 120 hours, second, unexplained block of rows",0.08 g/day
same,Release Rate,"[1]; Ambient, 144 hours, UV8 membrane, 1.6 mm orifice",0.11 g/day
same,Release Rate,"[1]; Ambient, 144 hours, second, unexplained block of rows",0.08 g/day
same,Release Rate,"[1]; Ambient, 168 hours, UV8 membrane, 1.6 mm orifice",0.11 g/day
same,Release Rate,"[1]; Ambient, 168 hours, second, unexplained block of rows",0.11 g/day
same,Avg. Mass Loss,"[2]; week 0, ave. temp. 25.10 ° C",0.00 g
same,Avg. Mass Remaining,"[2]; week 0, ave. temp. 25.10 ° C",14.94 g
same,Avg. Release Rate,"[2]; week 0, ave. temp. 25.10 ° C",0.000 g/day
same,Avg. Mass Loss,"[2]; week 2, ave. temp. 26.30 ° C",0.48 g
same,Avg. Mass Remaining,"[2]; week 2, ave. temp. 26.30 ° C",14.46 g
same,Avg. Release Rate,"[2]; week 2, ave. temp. 26.30 ° C",0.035 g/day
same,Avg. Mass Loss,"[2]; week 4, ave. temp. 26.90 ° C",1.57 g
same,Avg. Mass Remaining,"[2]; week 4, ave. temp. 26.90 ° C",13.37 g
same,Avg. Release Rate,"[2]; week 4, ave. temp. 26.90 ° C",0.078 g/day
same,Avg. Mass Loss,"[2]; week 6, ave. temp. 27.10 ° C",2.73 g
same,Avg. Mass Remaining,"[2]; week 6, ave. temp. 27.10 ° C",12.21 g
same,Avg. Release Rate,"[2]; week 6, ave. temp. 27.10 ° C",0.083 g/day
same,Avg. Mass Loss,"[2]; week 8, ave. temp. 24.40 ° C",3.77 g
same,Avg. Mass Remaining,"[2]; week 8, ave. temp. 24.40 ° C",11.17 g
same,Avg. Release Rate,"[2]; week 8, ave. temp. 24.40 ° C",0.074 g/day
same,Avg. Mass Loss,"[2]; week 10, ave. temp. 22.60 ° C",4.09 g
same,Avg. Mass Remaining,"[2]; week 10, ave. temp. 22.60 ° C",10.85 g
same,Avg. Release Rate,"[2]; week 10, ave. temp. 22.60 ° C",0.023 g/day
same,Avg. Mass Loss,"[2]; week 12, ave. temp. 21.50 ° C",4.66 g
same,Avg. Mass Remaining,"[2]; week 12, ave. temp. 21.50 ° C",10.28 g
same,Avg. Release Rate,"[2]; week 12, ave. temp. 21.50 ° C",0.041 g/day
same,Avg. Mass Loss,"[2]; week 14, ave. temp. 19.90 ° C",4.93 g
same,Avg. Mass Remaining,"[2]; week 14, ave. temp. 19.90 ° C",10.01 g
same,Avg. Release Rate,"[2]; week 14, ave. temp. 19.90 ° C",0.019 g/day
same,Avg. Mass Loss,"[2]; week 16, ave. temp. 17.70 ° C",5.11 g
same,Avg. Mass Remaining,"[2]; week 16, ave. temp. 17.70 ° C",9.83 g
same,Avg. Release Rate,"[2]; week 16, ave. temp. 17.70 ° C",0.013 g/day
same,Avg. Mass Loss,"[2]; week 18, ave. temp. 15.30 ° C",5.30 g
same,Avg. Mass Remaining,"[2]; week 18, ave. temp. 15.30 ° C",9.64 g
same,Avg. Release Rate,"[2]; week 18, ave. temp. 15.30 ° C",0.013 g/day
same,Avg. Mass Loss,"[2]; week 20, ave. temp. 14.40 ° C",5.59 g
same,Avg. Mass Remaining,"[2]; week 20, ave. temp. 14.40 ° C",9.35 g
same,Avg. Release Rate,"[2]; week 20, ave. temp. 14.40 ° C",0.021 g/day
same,Avg. Mass Loss,"[2]; week 24, ave. temp. 11.70 ° C",5.86 g
same,Avg. Mass Remaining,"[2]; week 24, ave. temp. 11.70 ° C",9.08 g
same,Avg. Release Rate,"[2]; week 24, ave. temp. 11.70 ° C",0.009 g/day
same,Avg. Mass Loss,"[2]; week 28, ave. temp. […] C",6.20 g
same,Avg. Mass Remaining,"[2]; week 28, ave. temp. […] C",8.74 g
same,Avg. Release Rate,"[2]; week 28, ave. temp. […] C",0.012 g/day
same,Avg. Mass Loss,"[2]; week 31, ave. temp. […] C",6.80 g
same,Avg. Mass Remaining,"[2]; week 31, ave. temp. […] C",8.14 g
same,Avg. Release Rate,"[2]; week 31, ave. temp. […] C",0.028 g/day
same,Avg. Mass Loss,"[2]; week 35, ave. temp. 12.60 ° C",7.29 g
same,Avg. Mass Remaining,"[2]; week 35, ave. temp. 12.60 ° C",7.65 g
same,Avg. Release Rate,"[2]; week 35, ave. temp. 12.60 ° C",0.018 g/day
same,Avg. Mass Loss,"[2]; week 38, ave. temp. 13.50 ° C",7.56 g
same,Avg. Mass Remaining,"[2]; week 38, ave. temp. 13.50 ° C",7.38 g
same,Avg. Release Rate,"[2]; week 38, ave. temp. 13.50 ° C",0.013 g/day
same,Avg. Mass Loss,"[2]; week 39, ave. temp. 13.30 ° C",7.80 g
same,Avg. Mass Remaining,"[2]; week 39, ave. temp. 13.30 ° C",7.14 g
same,Avg. Release Rate,"[2]; week 39, ave. temp. 13.30 ° C",0.033 g/day
same,Avg. Mass Loss,"[2]; week 41, ave. temp. 15.80 ° C",8.12 g
same,Avg. Mass Remaining,"[2]; week 41, ave. temp. 15.80 ° C",6.82 g
same,Avg. Release Rate,"[2]; week 41, ave. temp. 15.80 ° C",0.023 g/day
same,Avg. Mass Loss,"[2]; week 43, ave. temp. 16.50 ° C",8.44 g
same,Avg. Mass Remaining,"[2]; week 43, ave. temp. 16.50 ° C",6.50 g
same,Avg. Release Rate,"[2]; week 43, ave. temp. 16.50 ° C",0.023 g/day
same,Avg. Mass Loss,"[2]; week 46, ave. temp. 18.10 ° C",9.17 g
same,Avg. Mass Remaining,"[2]; week 46, ave. temp. 18.10 ° C",5.77 g
same,Avg. Release Rate,"[2]; week 46, ave. temp. 18.10 ° C",0.035 g/day
same,Avg. Mass Loss,"[2]; week 47, ave. temp. 20.40 ° C",9.48 g
same,Avg. Mass Remaining,"[2]; week 47, ave. temp. 20.40 ° C",5.46 g
same,Avg. Release Rate,"[2]; week 47, ave. temp. 20.40 ° C",0.044 g/day
